Experimental data reported in patent publication US20130217664A1, “NOVEL COMPOUNDS USEFUL FOR THE TREATMENT OF DEGENERATIVE AND INFLAMMATORY DISEASES” (priority 2012, published 2013).

How the values were obtained:
[1] = target: T1, human JAK1 (Homo sapiens, UniProt P23458); assay: JAK1 inhibition assay (polyGT substrate / Ulight-JAK1 peptide); assay type: biochemical; conditions: recombinant human JAK1 catalytic domain; polyGT or Ulight-JAK1 peptide assay
T1 construct: catalytic domain, amino acids 866-1154; catalog number PV4774; purchased Invitrogen PV4774
T1 sequence (P23458 866-1154): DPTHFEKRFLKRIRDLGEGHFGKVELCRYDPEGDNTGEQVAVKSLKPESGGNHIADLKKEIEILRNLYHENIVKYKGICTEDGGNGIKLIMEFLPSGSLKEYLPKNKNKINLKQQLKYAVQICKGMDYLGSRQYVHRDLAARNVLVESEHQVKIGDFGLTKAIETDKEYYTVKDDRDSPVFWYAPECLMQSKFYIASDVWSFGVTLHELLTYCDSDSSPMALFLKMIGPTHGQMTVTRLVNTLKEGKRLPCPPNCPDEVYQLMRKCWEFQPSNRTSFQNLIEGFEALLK
Procedure, shortened: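 Signal scaled between vehicle and 10 μM staurosporine. Radiometric polyGT reactions ran 45 min at 30 °C, counted after phosphoric-acid stop. Ulight peptide reactions ran 60 min at room temperature, fluorescence read after adding Eu-PT66 detection mix with EDTA.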

[2] = target: T2, human JAK2 (Homo sapiens, UniProt O60674); assay: JAK2 inhibition assay (polyGT substrate / Ulight-JAK1 peptide); assay type: biochemical; conditions: recombinant human JAK2 catalytic domain; polyGT or Ulight-JAK1 peptide assay
T2 construct: catalytic domain (amino acids 808-1132; catalog number PV4210); GST; purchased Invitrogen PV4210
T2 sequence (O60674 808-1132): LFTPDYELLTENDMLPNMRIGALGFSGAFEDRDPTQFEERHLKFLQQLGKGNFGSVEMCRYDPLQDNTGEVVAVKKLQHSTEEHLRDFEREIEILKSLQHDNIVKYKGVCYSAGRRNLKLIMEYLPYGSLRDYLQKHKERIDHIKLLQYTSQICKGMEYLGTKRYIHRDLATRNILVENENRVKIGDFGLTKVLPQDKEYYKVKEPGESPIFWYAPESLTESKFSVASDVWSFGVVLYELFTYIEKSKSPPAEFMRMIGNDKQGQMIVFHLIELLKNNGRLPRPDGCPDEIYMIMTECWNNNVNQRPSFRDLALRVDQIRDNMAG
Procedure, shortened: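 Two JAK2 formats: a ^33P-ATP polyGT assay (1 μM cold ATP, 90 min, 30° C., cpm read-out) and a Ulight-JAK1 peptide assay read by Europium-anti-phosphotyrosine fluorescence after 60 min at room temperature.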

[3] = target: T3, human JAK3 (Homo sapiens, UniProt P52333); assay: JAK3 inhibition assay; assay type: biochemical; conditions: recombinant human JAK3 catalytic domain; polyGT substrate
T3 construct: catalytic domain (amino acids 781-1124; catalog number PV3855); purchased Invitrogen PV3855
T3 sequence (P52333 781-1124): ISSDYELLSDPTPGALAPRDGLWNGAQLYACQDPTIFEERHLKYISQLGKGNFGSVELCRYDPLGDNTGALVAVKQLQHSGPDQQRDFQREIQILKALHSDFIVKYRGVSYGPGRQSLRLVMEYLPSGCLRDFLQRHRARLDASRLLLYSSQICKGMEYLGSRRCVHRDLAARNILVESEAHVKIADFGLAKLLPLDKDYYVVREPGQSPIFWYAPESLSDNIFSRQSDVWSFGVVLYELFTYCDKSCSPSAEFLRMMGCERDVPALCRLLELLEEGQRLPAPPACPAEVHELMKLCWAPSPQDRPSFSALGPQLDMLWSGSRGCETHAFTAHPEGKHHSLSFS
Procedure, shortened: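 Radiometric kinase assay: 0.5 ng JAK3 with 2.5 μg polyGT in Tris pH 7.5/MgCl2 buffer, 1 μM ATP plus 0.25 μCi 33P-γ-ATP, 1% DMSO, 45 min at 30 °C, stopped with phosphoric acid.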

[4] = target: T4, human TYK2 (Homo sapiens, UniProt P29597); assay: TYK2 inhibition assay; assay type: biochemical; conditions: recombinant human TYK2 catalytic domain, polyGT substrate
T4 construct: catalytic domain (amino acids 871-1187; catalog number 08-147); purchased Carna Biosciences 08-147
T4 sequence (P29597 871-1187): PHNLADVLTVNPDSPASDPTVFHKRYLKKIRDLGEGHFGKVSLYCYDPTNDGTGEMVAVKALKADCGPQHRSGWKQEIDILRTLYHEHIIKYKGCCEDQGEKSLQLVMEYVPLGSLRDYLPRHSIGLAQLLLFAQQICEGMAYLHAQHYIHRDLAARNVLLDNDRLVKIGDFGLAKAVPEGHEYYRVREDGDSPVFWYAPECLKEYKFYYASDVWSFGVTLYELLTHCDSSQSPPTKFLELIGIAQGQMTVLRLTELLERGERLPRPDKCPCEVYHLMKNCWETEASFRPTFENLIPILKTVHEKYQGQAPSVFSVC
Procedure, shortened: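 Radiometric kinase reaction run 90 min at 30 °C, stopped with phosphoric acid, washed and scintillation-counted.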

[5] = tested on: CTLL-2 cell line; assay: CTLL2 viability assay; assay type: cell-based; conditions: Mus musculus, IL-2 dependent CTLL2 viability, 24 h, ATP-lite
From the text: The protocol describes the methods to analyse the activity of compounds on their ability to sustain the IL2-dependent viability of CTLL2.
Final DMSO concentration was 0.1%.

Structure (SMILES) | IC50 [1] | IC50 [2] | IC50 [3] | IC50 [4] | IC50 [5]
CCc1cc(CNS(=O)(=O)N2CC(F)(F)C2)ccc1N(C)c1cc2c(cn1)ncn2C [Compound 424, 3,3-Difluoro-azetidine-1-sulfonic acid 3-ethyl-4-[methyl-(1-methyl-1H-imidazo[4,5-c]pyridin-6-yl)-amino]-benzylamide] | 0.01 to 100 nM | 0.01 to 100 nM | 101 to 500 nM | 101 to 500 nM | > 1000 nM
CCc1cc(CNS(=O)(=O)N2CCC(F)(F)C2)ccc1N(C)c1cc2c(cn1)ncn2C [Compound 425, 3,3-Difluoro-pyrrolidine-1-sulfonic acid 3-ethyl-4-[methyl-(1-methyl-1H-imidazo[4,5-c]pyridin-6-yl)-amino]-benzylamide] | 0.01 to 100 nM | 0.01 to 100 nM | 101 to 500 nM | 101 to 500 nM | > 1000 nM
CCc1cc(CNS(=O)(=O)N2CCOCC2)ccc1N(C)c1cc2c(cn1)ncn2C [Compound 426, Morpholine-4-sulfonic acid 3-ethyl-4-[methyl-(1-methyl-1H-imidazo[4,5-c]pyridin-6-yl)-amino]-benzylamide] | 0.01 to 100 nM | 0.01 to 100 nM | 101 to 500 nM | 101 to 500 nM | > 1000 nM
CCc1cc(C2CCCCC2)ncc1N(C)c1cc2c(cn1)ncn2C [Compound 432, (6-Cyclohexyl-4-ethyl-pyridin-3-yl)-methyl-(1-methyl-1H-imidazo[4,5-c]pyridin-6-yl)-amine] | 0.01 to 100 nM | 101 to 500 nM | > 1000 nM | 101 to 500 nM | > 1000 nM
CCc1cc(C2CCCC2)ncc1N(C)c1cc2c(cn1)ncn2C [Compound 433, (6-Cyclopentyl-4-ethyl-pyridin-3-yl)-methyl-(1-methyl-1H-imidazo[4,5-c]pyridin-6-yl)-amine] | 0.01 to 100 nM | 0.01 to 100 nM | 101 to 500 nM | 101 to 500 nM | > 1000 nM
CCc1cc(C2CCC2)ncc1N(C)c1cc2c(cn1)ncn2C [Compound 434, (6-Cyclobutyl-4-ethyl-pyridin-3-yl)-methyl-(1-methyl-1H-imidazo[4,5-c]pyridin-6-yl)-amine] | 0.01 to 100 nM | 101 to 500 nM | > 1000 nM | 101 to 500 nM | > 1000 nM
CCc1cc(C(C#N)N2CCC(C#N)CC2)ccc1N(C)c1cc2c(cn1)ncn2C (stereo not shown) [Compound 435, 1-(Cyano-{3-ethyl-4-[methyl-(1-methyl-1H-imidazo[4,5-c]pyridin-6-yl)-amino]-phenyl}-methyl)-piperidine-4-carbonitrile] | 0.01 to 100 nM | 0.01 to 100 nM | 101 to 500 nM | 0.01 to 100 nM | > 1000 nM

Second part, led by results:

IC50 [1] | IC50 [2] | IC50 [3] | IC50 [4] | Structure (SMILES) | IC50 [5]
0.01 to 100 nM | 101 to 500 nM | > 1000 nM | 101 to 500 nM | CCc1cc(CN2CCC(S(C)(=O)=O)C2)ccc1N(C)c1cc2c(cn1)ncn2C (stereo not shown) [Compound 420, [2-Ethyl-4-(3-methanesulfonyl-pyrrolidin-1-ylmethyl)-phenyl]-methyl-(1-methyl-1H-imidazo[4,5-c]pyridin-6-yl)-amine] | > 1000 nM
0.01 to 100 nM | 101 to 500 nM | 501 to 1000 nM | 0.01 to 100 nM | CCc1cc(CN2CCNC(=O)C2)ccc1N(C)c1cc2c(cn1)ncn2C [Compound 421, 4-{3-Ethyl-4-[methyl-(1-methyl-1H-imidazo[4,5-c]pyridin-6-yl)-amino]-benzyl}-piperazin-2-one] | > 1000 nM
0.01 to 100 nM | 501 to 1000 nM | > 1000 nM | 501 to 1000 nM | CCc1cc(CN2CCC(F)(F)CC2)ccc1N(C)c1cc2c(cn1)ncn2C [Compound 422, [4-(4,4-Difluoro-piperidin-1-ylmethyl)-2-ethyl-phenyl]-methyl-(1-methyl-1H-imidazo[4,5-c]pyridin-6-yl)-amine] | > 1000 nM
0.01 to 100 nM | 0.01 to 100 nM | 0.01 to 100 nM | 0.01 to 100 nM | CCc1cc(CNS(N)(=O)=O)ccc1N(C)c1cc2c(cn1)ncn2C [Compound 423, N-{3-Ethyl-4-[methyl-(1-methyl-1H-imidazo[4,5-c]pyridin-6-yl)-amino]-benzyl}-aminosulfonamide] | > 1000 nM
